Consider two molecules from patent US20150057351A1, “METHOD FOR TREATING NEUROPATHIC PAIN” (SUCAMPO AG, priority 2013, published 2015).

Assay [1] has as its system neuropathic pain model rats. The assay is described as follows: Pain threshold in neuropathic pain model rats (L4/L5 nerve root ligation, Dynamic Plantar Aesthesiometer). Format: in vivo, rat. To be noted: for Pain threshold, During treatment 2 day: 2-day after start of administration; for Pain threshold, During treatment 4-day: 4-day after start of administration; for Pain threshold, During treatment 7-day: 7-day after start of administration; for Pain threshold, 10-day: 10-day after start of administration; for Pain threshold, Pre-treatment: baseline, before start of administration.

For assay [2], the system named is patients who have neuropathic pain around the low back and the lower limbs. The assay is described as follows: Pain-associated QOL by JOABPEQ (social life function) in patients with neuropathic pain. The format is in vivo, human. On the procedure: (§1) Compound A and corresponding placebo were injected to the patients who have neuropathic pain around the low back and the lower limbs twice daily for 14 days. For the first 3 days, 30 μg of Compound A was administered twice daily (60 μg/day), and then 60 μg of Compound A was administer twice daily (120 μg/day) for the next 11 days.
The patient's pain-associated quality of life (QOL) was assessed using Japan Orthopedic Association Back Pain Evaluation questionnaires (JOABPEQ). Patients self-evaluated their QOL before (Pre-Treatment), 8 days (Day 8) and 15 days (Day 15) after start treatment by Compound A or placebo.

Assay [3] has the same test system. The assay is described as follows: Pain intensity by Visual Analogue Scale (VAS), responder rate in patients with neuropathic pain. The format is in vivo, human. As for the experimental part: as §1
The intensity of pain was assessed using Visual Analogue Scale (VAS). A VAS is usually a horizontal line, 100 mm in length, anchored by no pain and awful pain at each end. The patient marks on the line the point that they feel represents their perception of their current state. The VAS score is determined by measuring in millimeters from the left hand end of the line to the point that the patient marks. VAS score was measured before (Pre-treatment) and 15-days (Day 15) after start treatment by Compound A or placebo.

Where [4] appears, read: 30 μg/kg intravenous twice a day for 7 days.
The mark [5] stands for this setting: 1 mg/kg oral twice a day for 7 days.

Molecules are shown by their SMILES. Marks after values point to notes of the source that are not given here.

For `CCCCC(F)(F)C(=O)CC[C@H]1CCC(=O)[C@@H]1CCCCCCC(=O)O` [Compound A, (−)-7-[(1R,2R)-2-(4,4-difluoro-3-oxooctyl)-5-oxocyclopentyl]heptanoic acid], in assay [1] (setting [4]), the “Pain threshold, During treatment 2 day” value is on record as 6.8 ± 0.3 g; the “Pain threshold, During treatment 4-day” value is 7.6 ± 0.3 g; the “Pain threshold, During treatment 7-day” value is 8.1 ± 0.3 g; the “Pain threshold, 10-day” value was determined as 8.4 g. Besides, the “Pain threshold, Pre-treatment” value in assay [1] (30 μg/kg intravenous twice a day, 4 days after surgery) amounted to 6.1 ± 0.2 g. In addition, the “Pain threshold of the model paw compared with vehicle-control group” value in assay [1] (intravenous, 30 μg/kg twice a day) is reported as “statistically significantly increased”. Moreover, the “Change in score of social life function from pre-treatment, Day 15” value in assay [2] (injected twice daily for 14 days: 60 μg/day for 3 days, then 120 μg/day for 11 days, Day 15, JOABPEQ) is recorded as 3.0 ± 2.8 (N = 20). The “Social life function (JOABPEQ factor)” value in assay [2] (injected twice daily for 14 days, vs placebo) was “significantly improved”. The “Change in score of social life function from pre-treatment, Day 8” value in assay [2] (injected twice daily: 60 μg/day for 3 days, then 120 μg/day, Day 8, JOABPEQ) is 2.7 ± 2.8 (N = 20) ^a. Besides, the Rate of responder in assay [3] (injected twice daily for 14 days: 60 μg/day for 3 days, then 120 μg/day for 11 days, VAS Day 15 vs pre-treatment) is 94.4% (N = 18) *. Moreover, in assay [3] (injected twice daily for 14 days, VAS Day 15), the “Responder rate compared with placebo treated group” value was “significantly higher”.

In the case of `CCCCC(F)(F)C(=O)CC[C@H]1CCC(=O)[C@@H]1CCCC/C=C/C(=O)O` [Compound B, (E)-7-[(1R,2R)-2-(4,4-difluoro-3-oxooctyl)-5-oxocyclopentyl]hept-2-enoic acid], in assay [1] (setting [5]), the “Pain threshold, During treatment 2 day” value is recorded as 7.7 ± 0.3 g; the “Pain threshold, During treatment 4-day” value amounted to 8.2 g; the “Pain threshold, During treatment 7-day” value came to 8.6 ± 0.2 g; the “Pain threshold, 10-day” value was 8.2 ± 0.2 g. In addition, the “Pain threshold, Pre-treatment” value in assay [1] (1 mg/kg oral twice a day) was 6.8 ± 0.2 g. The “Pain threshold of the model paw compared with vehicle-control group” value in assay [1] (oral, 1 mg/kg twice a day for 7 days) is on record as “statistically significantly increased”.
